In patent US8841463B2, “Cathepsin C inhibitors” (GlaxoSmithKline Intellectual Property Development Limited, priority 2011, dated 2014):
Structures can show the parent of a compound that is named as a salt.

Molecular target: recombinant human cathepsin C (Homo sapiens, UniProt P53634)
Assay: Recombinant Cathepsin C in vitro assay (cleavage of fluorogenic substrate H-Ser-Tyr-AMC)
Assay type: biochemical
Conditions: average of two experiments; one hour preincubation, pH 5.5, room temperature; read-out: concentration giving 50% cathepsin C inhibition
Method: B. Recombinant Cathepsin C In Vitro Assay:
The activity of recombinant human cathepsin C was measured by the cleavage of a fluorogenic substrate, H-Ser-Tyr-AMC. Briefly, 24 pM cathepsin C was incubated with test compound (e.g. inhibitor) in a buffer consisting of 50 mM sodium acetate, 30 mM sodium chloride, 1 mM CHAPS, 1 mM dithiothreitol, 1 mM EDTA, pH 5.5 at room temperature for one hour. After one hour of incubating test compound with cathepsin C, the activity assay was initiated by the addition of an equal volume of 0.010 mM H-Ser-Tyr-AMC in the same buffer. After one hour, the activity assay was stopped by the addition of ⅕ volume of 100 μM E-64. The reaction product was measured on a fluorescence reader set at an excitation wavelength of 360 nm and emission wavelength of 460 nm and equipped with a 400 nm dichroic mirror.

Chain of recombinant human cathepsin C (P53634 25-463): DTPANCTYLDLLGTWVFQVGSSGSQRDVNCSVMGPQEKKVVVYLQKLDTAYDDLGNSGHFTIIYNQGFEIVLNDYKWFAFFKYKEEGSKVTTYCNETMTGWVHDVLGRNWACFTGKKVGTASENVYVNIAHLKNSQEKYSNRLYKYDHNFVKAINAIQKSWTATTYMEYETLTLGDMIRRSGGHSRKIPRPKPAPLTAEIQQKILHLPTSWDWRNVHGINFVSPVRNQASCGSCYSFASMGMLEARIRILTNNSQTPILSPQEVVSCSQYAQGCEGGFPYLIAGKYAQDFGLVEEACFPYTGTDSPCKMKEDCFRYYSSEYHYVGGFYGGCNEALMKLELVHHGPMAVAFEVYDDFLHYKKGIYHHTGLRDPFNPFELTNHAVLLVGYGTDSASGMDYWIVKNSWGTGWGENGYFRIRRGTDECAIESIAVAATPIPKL

| IC50 [nM] | Compound |
| --- | --- |
| < 1 | CC(C)C[C@@H](/C=C/C(=O)N1CCc2ccccc21)NC(=O)C1(N)CCOCC1 [Example 2, 4-amino-N-[(1S,2E)-4-(2,3-dihydro-1H-indol-1-yl)-1-(2-methylpropyl)-4-oxo-2-buten-1-yl]tetrahydro-2H-pyran-4-carboxamide hydrochloride] |
| < 1 | CC[C@@H](/C=C/C(=O)N1CCc2ccccc21)NC(=O)C1(N)CCOCC1 [Example 1, 4-amino-N-[(1S,2E)-4-(2,3-dihydro-1H-indol-1-yl)-1-ethyl-4-oxo-2-buten-1-yl]tetrahydro-2H-pyran-4-carboxamide hydrochloride] |
